According to patent publication US12173309B2, “Compounds for increasing genome editing efficiency” (Max-Planck-Gesellschaft zur Förderung der Wissenschaften …, priority 2017, dated 2024):

What was measured:
[1] = tested on: 409-B2 hiPSCs; assay: PGE efficiency with recombinant Cpf1 ribonucleoprotein electroporation; format: cell-based, human
From the text: The recombinant A.s. Cpf1 and S.p. Cas9 protein and electroporation enhancer was ordered from IDT (Coralville, USA) and nucleofection was done using the manufacturer's protocol, except for the following alterations. […] Cells were counted using the Countess Automated Cell Counter (Invitrogen). […]
CRISPresso (Pinello et al. 2016) was used to analyse sequencing data from CRISPR genome editing experiments for percentage of wildtype, targeted nucleotide substitutions (TNS), indels and mix of TNS and indels. […] Sequencing data from colonies after single cell seeding (FIGS. 3B and C) was further analyzed by evaluating the actual read sequences using SAMtools. Clonal colonies were differentiated from mixed colonies using sequence read proportions. Colonies were counted as clones if the clear majority of reads consisted of a single sequence (homozygous) or of two sequences of similar read count (heterozygous). […]

[2] = Solubility of stock in DMSO; format: physicochemical; settings: 10 mM stock in DMSO
Experimental: Commercially available small molecules used in this study were NU7026 (SIGMA, […]), TSA (SIGMA, […]), MLN4924 (Adooq BioScience, A11260), NSC 19630 (Calbiochem, 681647), NSC 15520 (ChemBridge, 6048069), AICAR (SIGMA, A9978), RS-1 (Calbiochem, 553510), Resveratrol (Selleckchem, S1396), SCR7 (XcessBio, M60082-2s), L755507 (TOCRIS, 2197), B02 (SIGMA, SML0364) and STL127685 (Vitas-M). STL127685 is a 4-fluorophenyl analog of the non-commercially available STL127705. Stocks of 15 mM (or 10 mM for NU7026) were made using dimethylsulfoxide (DMSO)(Thermo Scientific, D12345). […] Suitable working solutions for different concentrations were made so that addition of each small molecule accounts for a final concentration of 0.08% (or 0.2% for NU7026) DMSO in the media. Addition of all small molecules would lead to a final concentration of 0.7% DMSO.

solubility [2]: limiting factor
Compound: O=c1cc(N2CCOCC2)oc2c1ccc1ccccc12 [NU7026]
PGE increase ([1]; DMNT1): 2.4 fold
PGE increase ([1]; HPRT): 2.1 fold
